Source: patent US20110152362A1, “METHODS OF TREATING EPILEPTOGENESIS AND EPILEPSY” (priority 2004, published 2011)

What was measured:
Type in all cases: in vivo, rat
[1] = test system: rats subjected to Li-pilo induced SE; experiment: Example 1: mortality induced by lithium-pilocarpine status epilepticus
Description: The bilateral EEG cortical activity was recorded during the whole duration of SE and behavioral changes were noted.
(§1) The effects of increasing doses of the Test Compound were studied on 3 groups of rats. The animals of the first group received 10 mg/kg of the test compound, i.p., 1 h after the onset of SE (pilo-TC10) while the animals of groups 2 and 3 received 30 and 60 mg/kg of the Test Compound (pilo-TC30 and pilo-TC60), respectively.
(§2) The control group received saline instead of pilocarpine and the Test Compound (saline-saline). […] Pilo-DZP received a second injection of 1 mg/kg DZP on the day of SE at about 10 h after the first one. Thereafter, Pilo-DZP and saline-saline rats received twice daily an equivalent volume of saline.

[2] = test system: rats subjected to Li-pilo induced SE; experiment: Example 1: quantification of cell densities in hippocampus, thalamus and cortex after Li-pilo SE
Description: as §1, §2
Quantification of cell densities was performed at 6 days after SE on 8 pilo-DZP, 8 pilo-TC10, 7 pilo-TC30, 7 pilo-TC60, and 6 saline-saline rats. […] Counts involved only cells larger than 10 μm, smaller ones being considered as glial cells.
For the comparison of the characteristics of SE in pilo-saline and pilo-test compound animals, a non-paired Student's t-test was used. The comparison between the number of rats seizing in both groups was performed by means of a Chi square test. For neuronal damage, statistical analysis between groups was performed using ANOVA followed by a Fisher's test for multiple comparisons using the Statview software (Fisher R A, 1946a, Statistical Methods for Research Workers (10th edition) Oliver & Boyd, Edinburgh; Fisher R A, 1946b, The Design of Experiments (4th edition) Oliver & Boyd, Edinburgh)

[3] = test system: rats subjected to li-pilo SE; experiment: Example 2: latency to and frequency of spontaneous seizures (video recording)
Description: The effects of DZP and the 4 doses of TC on epileptogenesis were investigated by daily video recording of the animals for 10 h per day. Video recording was performed for 4 weeks during which the occurrence of the first seizure was noted as well as the total number of seizures over the whole period. Animals were then taken off the video recording system and kept for 4 additional weeks in our animal facilities before they were sacrificed after a total period of 8 weeks of epilepsy.

NC(=O)OC[C@@H](O)c1ccccc1Cl [TC]
mortality during the first 48 h after SE ([1]; pilo-TC10, 10 mg/kg i.p.): 26%
mortality during the first 48 h after SE ([1]; pilo-TC30, 30 mg/kg i.p.): 20%
mortality during the first 48 h after SE ([1]; pilo-TC60, 60 mg/kg i.p.): 4%
protective effects at lowest dose tested in Example 1 ([2]; 10 mg/kg/day): minimal or no protective effects
protection in CA3b ([2]; 60 mg/kg): significantly neuroprotective
reduction of neuronal damage, lateral thalamic nucleus ([2]; 60 mg/kg dose): 65%
reduction of neuronal damage, mediodorsal thalamic nucleus ([2]; 60 mg/kg dose): 42%
neuroprotection compared to pilo-DZP rats, ventral entorhinal cortex layers III-IV ([2]; TC60 administration): 31%
reduction of neuronal damage recorded in pilo-DZP rats, piriform cortex layer II ([2]; TC60 treatment): 41%
reduction of neuronal damage recorded in pilo-DZP rats, piriform cortex layers III-IV ([2]; TC60 treatment): 44%
worsening of cell loss compared with pilo-DZP rats, dorsal entorhinal cortex layers III-IV ([2]; pilo-TC10 rats): 28 % more damage
worsening of cell loss compared with pilo-DZP rats, ventral entorhinal cortex layers III-IV ([2]; pilo-TC10 rats): 35 % more damage
cell loss, CA1 pyramidal layer ([2]; pilo-TC30 animals): 35%
cell loss, CA1 pyramidal layer ([2]; pilo-TC60 animals): 16%
cell loss in the hilus of dentate gyrus ([2]; pilo-test compound animals (10, 30, 60 mg/kg)): 69-72%
protection in the CA3a area ([2]; test compound 10, 30, 60 mg/kg): did not afford any protection
effect on the latency to the first spontaneous seizure ([3]; 30 mg/kg): did not affect the latency to the first spontaneous seizure
latency of long latency subgroup relative to short latency ([3]; 3 higher doses (60, 90, 120 mg/kg)): 4-6 times longer
frequency of spontaneous seizures over four weeks of recording ([3]; TC60, 90 and 120 groups vs DZP and TC30 groups): lower
percentage of rats with short latencies to seizures ([3]; at 30 mg/kg (so in the source), short latency = shorter than 40 days after SE): 70%
percentage of rats with short latencies to seizures ([3]; at 90 mg/kg): 36%
percentage of rats with short latencies to seizures ([3]; at 120 mg/kg): 11%
percentage of non-epileptic rats (no seizure over 150 days post-SE) ([3]; at both highest doses, 90 and 120 mg/kg): 45%
Latency to the first spontaneous seizure ([3]; pilo-TC30, 30 mg/kg): 11.6 ± 2.5 days
Latency to the first spontaneous seizure ([3]; pilo-TC60, Long latency subgroup): 76.7 ± 15.6**°° days
Latency to the first spontaneous seizure ([3]; pilo-TC60, Short latency subgroup): 17.4 ± 5.4 days
Latency to the first spontaneous seizure ([3]; pilo-TC90, Long latency subgroup): 52.0 ± 1.0*° days
Latency to the first spontaneous seizure ([3]; pilo-TC90, Non epileptic subgroup (no seizure over 150 days post-SE)): 150**°° days
Latency to the first spontaneous seizure ([3]; pilo-TC90, Short latency subgroup): 14.8 ± 5.7 days
Latency to the first spontaneous seizure ([3]; pilo-TC120, Long latency subgroup): 84.5 ± 16.7**°° days
Latency to the first spontaneous seizure ([3]; pilo-TC120, Non epileptic subgroup (no seizure over 150 days post-SE)): 150**°° days
Latency to the first spontaneous seizure ([3]; pilo-TC120, Short latency subgroup): 13.0 days
